Results published in US11793867B2, “Neoantigens and uses thereof” (BIONTECH US INC., priority 2017, dated 2023).

Experiments:
CD8+ T cell responses = test: In vivo immunogenicity assay, longmers and shortmers sequentially (FIG. 3 regimen); parameters: species or system C57BL/6 mice; conditions: CD8 T cells induced by Alg8 vaccination
Method: FIG. 3 illustrates exemplary administration regimen for peptides comprising neoepitopes. The top panel depicts administering a prime dose and boost of longmer. The middle panel depicts administering a prime dose and boost of shortmer. The lower panel depicts administering a prime dose of longmer and boost of shortmer. The boost dose is administered on day 7, 14, and day 21 after the prime dose.
Peptide-specific T cells are functionally enumerated using the ELISPOT assay (BD Biosciences), which measures the release of IFNγ from T cells on a single cell basis. Cells incubated with antigen overnight (16-18 hours) at 37° C. The next day, the cell suspension was discarded, and wells were washed once with PBS, and twice with deionized water. […] Substrate (3-amino-9-ethyl-carbazole, 0.1 M Acetate buffer, H2O2) was added to all wells, and spot development monitored (approximately 10 minutes). […] The plates were analyzed on an ELISPOT reader (Cellular Technology Ltd.) with accompanying software. […]
MHC tetramers were purchased or manufactured on-site, and were used to measure peptide-specific T cell expansion in the immunogenicity assays. […] The phenotype of cells was assessed using markers such as CD44, CD62L, KLRG1, CD127, PD-1, LAG-3 and TIM-3. […] Cells were acquired on a FACS Calibur (Becton Dickinson) instrument, and were analyzed by use of Cellquest software (Becton Dickinson). […]

[1] = in humans; cited from earlier work
[2] = in combination with a NYESO-1 peptide vaccine (in addition to Montanide); cited from earlier work

Substance	TCR avidity (EC50) (CD8+ T cell responses)	CD4+ and CD8+ responses [1]	patients showing induction of CD4+ and CD8+ T cell, as well as antibody responses to the peptide [2]
AVGITYTWTRLYASVLTGSLVSKTKK [Alg8, longmer murine neoantigen peptide, H-2Kb, T3 model]	similar	–	–
poly-ICLC	–	durable CD4+ and CD8+ responses	> 90%
ITYTWTRL [Alg8-shortmer]	similar	–	–
